Reference: patent US20250262214A1, “INTERMITTENT DOSING REGIMEN FOR AZENOSERTIB IN TREATING CANCER” (Zeno Management, Inc., priority 2022, published 2025)
Entries after “also recorded” stand apart in the source; their conditions may differ.

Tests used:
[1] = tested on: human ovarian cancer SKOV3; assay: Human ovarian cancer SKOV3 animal model, tumor volume; assay type: in vivo; settings: 80 mg/kg 3 cycles 5 days on/2 days off vs continuous 60 mg/kg, 21 days
Procedure: In an exemplary human ovarian cancer SKOV3 animal model, Azenosertib was administered at a continuous dose of 60 mg/kg or at an intermittent dosing of 80 mg/kg at 3 cycles of 5 days on/2 days off (5/2).

[2] = tested on: non-small cell lung carcinoma (NSCLC) A427; assay: Non-small cell lung carcinoma (NSCLC) A427 model, tumor volume and body weight; assay type: in vivo, human
Procedure: In an exemplary non-small cell lung carcinoma (NSCLC) A427 model, Azenosertib was administered at a higher intermittent dose than a corresponding lower continuous dose. For example, Azenosertib was administered at 56 mg/kg in 4 dosing cycles of 5 days on/2 days off (5/2) and compared with a lower continuous dose of 40 mg/kg. Similarly, 112 mg/kg of Azenosertib in 4 dosing cycles of 5 days on/2 days off was compared with a lower continuous dose of 80 mg/kg.
The tumor volume was measured (FIG. 1C) as well as body weight (FIG. 1D) for 28 days post initiation of treatment.
In an exemplary non-small cell lung carcinoma (NSCLC) A427 model, Azenosertib was administered at a higher intermittent dose than a corresponding lower continuous dose. For example, Azenosertib was administered at 100 mg/kg in 4 dosing cycles of 4 days on/3 days off (4/3) and compared with a lower continuous dose of 60 mg/kg.
Change in tumor volume over 25 days post tumor initiation is shown in FIG. 1E, while corresponding change in body weight during treatment is shown in FIG. 1F.

[3] = tested on: human ovarian cancer OVCAR3; assay: Human ovarian cancer OVCAR3 model, tumor volume; assay type: in vivo
Procedure: In an exemplary human ovarian cancer OVCAR3 model, Azenosertib was administered at a dose of about 100 mg/kg at intermittent dosing regimen of 3 cycles of 7 days on/7 days off (7/7). Tumor volume change was plotted in FIG. 1I and corresponding change in body weight in FIG. 1J until about 32 days post-initiation of treatment.
In an exemplary human ovarian cancer OVCAR3 model, Azenosertib was administered based on an intermittent dosing regimen of 5 days on/2 days off (5/2) for a once daily dose (as compared to a twice daily dose (e.g., 80 mg/kg once daily vs. 40 mg/kg twice daily and 100 mg/kg once daily vs. 50 mg/kg twice daily).
Tumor volume was measured as shown in FIG. 2A and corresponding changes in body weight are shown in FIG. 2B until about 22 days post initiation of treatment.
In an exemplary human ovarian cancer OVCAR3 model, Azenosertib was administered at two different doses in each of two intermittent dosing regimen. Briefly, Azenosertib was administered 5 cycles of a 5 days on/2 days off (5/2) intermittent regimen at a dose of about 80 mg/kg (cumulative dose of 400 mg) and 90 mg/kg (cumulative dose of 450 mg) and also 4 cycles of a 4 days on/3 days off (4/3) intermittent regimen at 90 mg/kg (cumulative dose of 450 mg) and 100 mg/kg (cumulative dose of 500 mg). The results were compared with a continuous dose of 60 mg/kg for 22 days (cumulative dose of 300 mg).
Changes in tumor volume are shown in FIG. 2C and corresponding change in body weight in FIG. 2D until about 24 days post-initiation of treatment.
In an exemplary human ovarian cancer OVCAR3 model, Azenosertib was administered at 100 mg/kg in 3 cycles each of two intermittent dosing regimen, 4 days on/3 days off (4/3) or 3 days on/4 days off (3/4). Further, a continuous dosing of 60 mg/kg was administered for 24 days.
At a dose of 3 cycles of about 100 mg/kg for 4/3, the cumulative dose was 1200 mg, while at a dose of 3 cycles of about 100 mg/kg for 3/4, the cumulative dose was 900 mg.
Azenosertib and the PARPi, talazoparib, were evaluated using OVCAR-3 models on an intermittent dosing schedule. […] In addition, the alternating dosing schedule may potentially abrogate overlapping toxicity with WEE1 inhibitor and PARPi coadministration.
In an exemplary human ovarian cancer OVCAR3 animal model, Azenosertib was administered at an intermittent dosing of 60 mg/kg or 80 mg/kg at 3 cycles of 5 days on/2 days off, while Paclitaxel and Carboplatin were also each administered at respectively 20 mg/kg and 25 mg/kg, once a week, for 3 weeks In addition, the combinations of Azenosertib and Paclitaxel and of Azenosertib and Carboplatin were administered in accordance with the same dosing regimens and doses as their respective monotherapies.

[4] = tested on: MDA-MB-468 triple negative breast cancer tumor model; assay: MDA-MB-468 triple negative breast cancer tumor model, tumor growth inhibition; assay type: in vivo; settings: Azenosertib alone, 60 mg/kg
Procedure: In vivo exploration of dose and schedule of Azenosertib and PARPi (niraparib, talazoparib) including exploration of alternating dosing was evaluated.

[5] = Phase 1 Azenosertib monotherapy study, PK, safety and RP2D; assay type: in vivo, human
Procedure: In this example, a Phase 1a dose escalation and Phase 1b dose expansion clinical study was carried out to evaluate the safety and pharmacokinetics (PK), i.e. steady state exposure (AUC0-24) and concentration maximum (Cmax) of Azenosertib monotherapy.
In some cohorts, a phase 1a dose escalation was carried out starting at doses below 200 mg, escalating to 200 mg, 300 mg, 350 mg, 400 mg, and 450 mg total daily dose in continuous dosing regimen. The dose used in Phase 1b was 300 mg QD.
In some cohorts, a phase 1a dose escalation was carried out starting at doses of 350 mg, 400 mg, 450 mg and 500 mg total daily dose at a 5:2 or 4:3 dosing regimen. The doses used in Phase 1b were 350 mg and 400 mg at 5:2 dosing regimen.
In this example, a Phase 1 Azenosertib dose optimization study was carried out to evaluate the recommended phase II dose (RP2D) of Azenosertib monotherapy.
A total of 127 heavily pretreated subjects with advanced solid tumors were treated with Azenosertib monotherapy at ascending dose levels of either continuous daily dosing or intermittent weekly administration schedules. Across all tumor types, 74 subjects were treated with continuous dosing schedules and 53 subjects were treated with intermittent dosing schedules.

Half-life of Azenosertib = assay type: in vivo; settings: plasma

## C=CCn1c(=O)c2cnc(Nc3ccc(N4CCN(C)CC4)cc3)nc2n1-c1ccc2c(n1)[C@@](O)(CC)CC2 [Azenosertib, (R)-2-allyl-1-(7-ethyl-7-hydroxy-6,7-dihydro-5H-cyclopenta[b]pyridin-2-yl)-6-((4-(4-methylpiperazin-1-yl)phenyl)amino)-1,2-dihydro-3H-pyrazolo[3,4-d]pyrimidin-3-one]
[1]
  change in tumor volume, intermittent vs continuous dosing: more efficacious; also recorded: higher efficacy than continuous dosing in reducing tumor volume
[2]; 100 mg/kg 4 cycles 4 days on/3 days off vs continuous 60 mg/kg, 25 days
  tumor volume, intermittent vs continuous dosing: more efficacious; also recorded: slightly more efficacy than lower continuous dosing
[2]; 56 or 112 mg/kg 4 cycles 5 days on/2 days off vs continuous 40 or 80 mg/kg, same total cumulative dose, 28 days
  tumor volume, intermittent vs continuous dosing: more efficacious; also recorded: more efficacy in reducing tumor volume than lower continuous dosing
[2]; all doses (40, 80 mg/kg continuous; 56, 112 mg/kg 5/2)
  tolerability (body weight): well tolerated
[3]; 100 mg/kg 3 cycles 4/3 or 3/4 vs 60 mg/kg continuous for 24 days
  tumor volume, intermittent 4/3 or 3/4 vs continuous dosing: higher efficacy than continuous dosing
[3]; 100 mg/kg, 3 cycles, 4/3 = higher cumulative dose
  efficacy of 4/3 regimen vs 3/4 regimen: slightly higher efficacy
[3]; 5/2, 80 mg/kg once daily vs 40 mg/kg twice daily, 100 mg/kg once daily vs 50 mg/kg twice daily, same cumulative dose
  tumor volume, once daily vs twice daily dose: more efficacious relative to each twice daily dose; also recorded: more efficacious relative to a twice daily dose
[3]; 80, 90 mg/kg 5/2 and 90, 100 mg/kg 4/3 vs 60 mg/kg continuous, about 24 days
  tumor volume, intermittent 5/2 and 4/3 vs continuous dose: more efficacious than the lower continuous dose
[3]; about 100 mg/kg, 3 cycles of 7 days on/7 days off, about 32 days
  tumor volume, 7/7 intermittent dosing regimen: effective in reducing tumor volume
[4]
  tumor growth inhibition (TGI): 52.6%
[5]; 400 mg QD 5/2 compared to 300 mg QD continuous administration
  steady state exposure AUC (0-24), intermittent RP2D vs continuous: more than doubled
[5]; Azenosertib monotherapy including intermittent dosing
  cases of febrile neutropenia and sepsis: no observed cases of febrile neutropenia and sepsis
[5]; daily (QD), 5 days on, 2 days off (5/2) weekly schedule
  RP2D as a monotherapy: 400 mg
[5]; intermittent cohorts
  discontinuations due to TRAEs: no reported discontinuation; also recorded: No discontinuations due to TRAEs
[5]; intermittent versus continuous dosing
  gastrointestinal, fatigue, and hematologic Grade 3 and 4 treatment-related adverse events (TRAEs): comparable or favorable versus continuous dosing
[5]; monotherapy
  safety and tolerability, intermittent vs continuous dosing: improved tolerability
[5]; monotherapy, Phase 1
  maximal concentration (Cmax) levels, intermittent vs continuous dosing regimen: higher maximal concentration (Cmax) levels
Half-life of Azenosertib
  half-life: 8 h
